Experiments:
Assay in all cases: In-water applied herbicidal activity in transplanted paddy rice
Assay type in all cases: in vivo
[1] = test system: CYPDI = Cyperus difformis L. (small-flower flatsedge)
Experimental: (§1) Weed seeds or nutlets of the desired test plant species were planted in puddled soil (mud) prepared by mixing a non-sterilized mineral soil (28 percent silt, 18 percent clay, and 54 percent sand, with a pH of about 7.3 to 7.8 and an organic matter content of about 1.0 percent) and water at a ratio of 100 kilograms (kg) of soil to 19 liters (L) of water. The prepared mud was dispensed in 250 mL aliquots into 480 mL non-perforated plastic pots with a surface area of 86.59 cm^2 leaving a headspace of 2.5 to 3 cm in each pot. Rice seeds were planted in Sun Gro MetroMix 306 planting mixture, which typically has a pH of 6.0 to 6.8 and an organic matter content of about 30 percent, in plastic plug trays. Seedlings at the second or third leaf stage of growth were transplanted into 650 mL of mud contained in 960 mL non-perforated plastic pots with a surface area of 86.59 cm^2 four days prior to herbicide application. The paddy was created by filling the 2.5 to 3 cm headspace of the pots with water. When required to ensure good germination and healthy plants, a fungicide treatment and/or other chemical or physical treatment was applied. The plants were grown for 4-14 d in a greenhouse with an approximate 14-h photoperiod which was maintained at about 29° C. during the day and 26° C. during the night. Nutrients were added as Osmocote (17:6:10, Nitrogen:Phosphorus:Potassium (N:P:K)+minor nutrients) at 2 grams (g) per cup. Water was added on a regular basis to maintain the paddy flood, and supplemental lighting was provided with overhead metal halide 1000-Watt lamps as necessary. The plants were employed for testing when they reached the second or third true leaf stage. Treatments consisted of compounds 45, 34, and 66. For technical grade compounds, a weighed amount, determined by the highest rate to be tested, was placed in an individual 120 mL glass vial and was dissolved in 20 mL of acetone to obtain concentrated stock solutions. […] The concentrated stock solutions obtained were diluted with 20 mL of an aqueous mixture containing 2.5% Agri-dex crop oil concentrate (v/v). Applications were made by injecting an appropriate amount of the stock solution into the aqueous layer of the paddy. Control plants were treated in the same manner with the solvent blank. All treated plant material received the same concentration of acetone and crop oil concentrate. The treated plants and control plants were placed in a greenhouse as described above and water was added as needed to maintain a paddy flood. After approximately 3 weeks, the condition of the test plants, compared with that of the untreated plants, was determined visually and scored on a scale of 0 to 100 percent where 0 corresponds to no injury and 100 corresponds to complete kill. By applying the well-accepted probit analysis as described by J. Berkson in Journal of the […], 48, 565 (1953) and by D. Finney in “Probit Analysis” Cambridge University Press (1952) or by plotting the mean data and fitting a logarithmic curve to the portion of the data where there was a dose response using Microsoft Excel®, the above data can be used to calculate GR50 and GR90 values, which are defined as growth reduction factors that correspond to the effective dose of herbicide required to kill or control 50 percent or 90 percent, respectively, of a target plant.

[2] = test system: ECHCG = Echinochloa crus-galli (L.) P.BEAUV. (barnyardgrass)
Experimental: as §1

[3] = test system: MOOVA = Monochoria vaginalis (BURM.f.) C.PRESL ex KUNTH (monochoria)
Experimental: as §1

[4] = test system: ORYSA = Oryza sativa ‘M202’ (rice)
Experimental: as §1

[5] = test system: ORYSA = Oryza sativa ‘Wells’ (rice)
Experimental: as §1

[6] = Table 7, dose to kill or control 50 percent, 21 days after application
[7] = Table 7, dose to kill or control 90 percent, 21 days after application

COc1c(C(=O)O)nc(-c2ccc(Cl)c(OC)c2F)c(F)c1N [Compound 45, 4-amino-6-(4-chloro-2-fluoro-3-methoxyphenyl)-5-fluoro-3-methoxypicolinic acid]
Mean Visual Injury (%)-21 Days After Application CYPDI ([1]; Table 7, 8.75 g ae/ha): 67% | Mean Visual Injury (%)-21 Days After Application CYPDI ([1]; Table 7, 17.5 g ae/ha): 100% | Mean Visual Injury (%)-21 Days After Application CYPDI ([1]; Table 7, 35 g ae/ha): 100% | Mean Visual Injury (%)-21 Days After Application CYPDI ([1]; Table 7, 70 g ae/ha): 100% | Mean Visual Injury (%)-21 Days After Application CYPDI ([1]; Table 7, 140 g ae/ha): 100% | GR50 CYPDI [1, 6]: <8.75 g ae/ha | GR90 CYPDI [1, 7]: 14.2 g ae/ha | Mean Visual Injury (%)-21 Days After Application ECHCG ([2]; Table 7, 8.75 g ae/ha): 0% | Mean Visual Injury (%)-21 Days After Application ECHCG ([2]; Table 7, 17.5 g ae/ha): 0% | Mean Visual Injury (%)-21 Days After Application ECHCG ([2]; Table 7, 35 g ae/ha): 30% | Mean Visual Injury (%)-21 Days After Application ECHCG ([2]; Table 7, 70 g ae/ha): 100% | Mean Visual Injury (%)-21 Days After Application ECHCG ([2]; Table 7, 140 g ae/ha): 100% | GR50 ECHCG [2, 6]: 38.4 g ae/ha | GR90 ECHCG [2, 7]: 66.8 g ae/ha | Mean Visual Injury (%)-21 Days After Application MOOVA ([3]; Table 7, 8.75 g ae/ha): 100% | Mean Visual Injury (%)-21 Days After Application MOOVA ([3]; Table 7, 17.5 g ae/ha): 100% | Mean Visual Injury (%)-21 Days After Application MOOVA ([3]; Table 7, 35 g ae/ha): 100% | Mean Visual Injury (%)-21 Days After Application MOOVA ([3]; Table 7, 70 g ae/ha): 100% | Mean Visual Injury (%)-21 Days After Application MOOVA ([3]; Table 7, 140 g ae/ha): 100% | GR50 MOOVA [3, 6]: <8.75 g ae/ha | GR90 MOOVA [3, 7]: <8.75 g ae/ha | Mean Visual Injury (%)-21 Days After Application ORYSA ‘M202’ ([4]; Table 7, 8.75 g ae/ha): 0% | Mean Visual Injury (%)-21 Days After Application ORYSA ‘M202’ ([4]; Table 7, 17.5 g ae/ha): 0% | Mean Visual Injury (%)-21 Days After Application ORYSA ‘M202’ ([4]; Table 7, 35 g ae/ha): 0% | Mean Visual Injury (%)-21 Days After Application ORYSA ‘M202’ ([4]; Table 7, 70 g ae/ha): 0% | Mean Visual Injury (%)-21 Days After Application ORYSA ‘M202’ ([4]; Table 7, 140 g ae/ha): 12% | GR50 ORYSA ‘M202’ [4, 6]: >140 g ae/ha | GR90 ORYSA ‘M202’ [4, 7]: >140 g ae/ha | Mean Visual Injury (%)-21 Days After Application ORYSA ‘Wells’ ([5]; Table 7, 8.75 g ae/ha): 0% | Mean Visual Injury (%)-21 Days After Application ORYSA ‘Wells’ ([5]; Table 7, 17.5 g ae/ha): 0% | Mean Visual Injury (%)-21 Days After Application ORYSA ‘Wells’ ([5]; Table 7, 35 g ae/ha): 0% | Mean Visual Injury (%)-21 Days After Application ORYSA ‘Wells’ ([5]; Table 7, 70 g ae/ha): 0% | Mean Visual Injury (%)-21 Days After Application ORYSA ‘Wells’ ([5]; Table 7, 140 g ae/ha): 7% | GR50 ORYSA ‘Wells’ [5, 6]: >140 g ae/ha | GR90 ORYSA ‘Wells’ [5, 7]: >140 g ae/ha
